Columns and labels:
Assay type in all cases: biochemical
recombinant human PAI-1 [1] = target: T1, recombinant human PAI-1 (Homo sapiens, UniProt P05121); assay: Test Example 2: human PAI-1 inhibitory activity (tPA fluorogenic substrate assay, pH7.4 HEPES buffer); details: for IC50: pH7.4 HEPES buffer, obtained from Table 5 results; for inhibition at 3 µM: pH 7.4, read-out: Inhibition Rate of Human PAI-1 Activity (%)
T1 construct: purchased Molecular Innovations, Inc
Method: (§1) Except using the pH7.4 HEPES buffer instead of pH7.5 Tris buffer, and the change of incubation time from 15 minutes to 10 minutes of the mixed solution added by two-chain tPA solution, tests were carried out similarly to the Test Example 1.
<Compotion of pH7.4 HEPES Buffer>
0.1% Polyethylene glycol 8,000 (Hampton Research Corporation)
2 mM Dimethyldecylphoshine oxide [Apo-10] (Fluka Corporation)

recombinant rat PAI-1 = target: T2, recombinant rat PAI-1 (Rattus norvegicus, UniProt P20961); assay: Test Example 3: rat PAI-1 inhibitory activity (tPA fluorogenic substrate assay, pH7.4 HEPES buffer); details: for inhibition at 10 µM / inhibition at 3 µM: pH 7.4, read-out: Inhibition Rate of Rat PAI-1 Activity (%); for IC50: pH7.4 HEPES buffer, obtained from Table 7 results
T2 construct: purchased Molecular Innovations, Inc
T2 sequence (P20961 24-402): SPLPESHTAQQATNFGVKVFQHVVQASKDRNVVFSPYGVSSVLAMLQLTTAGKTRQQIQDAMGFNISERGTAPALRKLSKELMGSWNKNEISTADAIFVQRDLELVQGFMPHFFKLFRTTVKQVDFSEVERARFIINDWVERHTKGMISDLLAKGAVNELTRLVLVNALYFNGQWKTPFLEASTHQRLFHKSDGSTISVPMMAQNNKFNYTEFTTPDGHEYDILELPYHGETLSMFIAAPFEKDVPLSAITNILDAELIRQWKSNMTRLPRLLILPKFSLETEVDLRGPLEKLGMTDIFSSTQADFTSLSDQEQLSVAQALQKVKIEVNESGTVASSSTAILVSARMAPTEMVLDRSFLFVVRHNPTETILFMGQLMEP
Method: as §1

recombinant human PAI-1 [2] = target: T1, recombinant human PAI-1; assay: Test Example 4: human PAI-1 inhibitory activity (amount of PAI-1 bound to plate-coated tPA, ELISA); details: PAI-1 50 ng/ml bound to coated tPA, read-out: Inhibition Rate of Human PAI-1 Activity (%); for inhibition at 0.1 µM: compound 0.1 μM; for inhibition at 0.3 µM: compound 0.3 μM
Method: 100 μl of tPA solution where one-chain recombinant tPA (hereinafter refereed to as tPA; American diagnostica, inc.) diluted with Buffer A to achieve a concentration of 10 μg/ml was added to each well of 96-well plate (Nunc Maxisorp), incubated for one night at […] to coated with tPA. Then, after suction of tPA solution from the 96-well plate, rinsed successively with Buffer A and Buffer B.
To Buffer B, solutions of the present application compound dissolved with DMSO (final DMSO concentration: 0.2%) and recombinant human PAI-1 (Molecular Innovations, Inc.) were added and blended so that the final concentrations would be 0.1 to 3.0 μM and 50 ng/ml respectively, and were incubated for 15 minutes on ice. These mixed solutions were added to rinsed 96-well plates at 100 μl/well, and incubated for 60 minutes at room temperature. To prepare calibration curve, PAI-1 solutions without the present application compound (solutions where the final concentrations being 100, 50, 25, 12.5, 6.25, 3.13, 1.56 ng/ml PAI-1) were added at 100 μl/well, and were incubated for 60 minutes at room temperature, as standard.
After incubation, the reaction mixture was suction removed, and rinsed each well with Wash Buffer. Next, anti-human PAI-1 monoclonal antibody (PROGEN Inc.) diluted with Buffer C to be 3.0 μg/ml was added to the 96-well plate at 100 μl/well, and incubated for 1 hour at room temperature. After rinsing each well with Wash Buffer, alkaline phosphatase-labeled goat anti-mouse IgG (H+L) (Jackson ImmunoResearch, Inc.) diluted with Buffer D to be 0.12 μg/ml was added at 100 μl/well, and incubated for 1 hour at room temperature. After rinsing each well with Wash Buffer, 1.0 mg/ml p-Nitrophenyl Phosphate (SIGMA) was added to the 96-well plate at 100 μl/well to start the reaction. After 30 to 60 minutes, 25 μl of 0.5 N NaOH was added to stop the reaction, and the absorbance was measured at 405 nm using a multiplate reader (GENios; TECAN G.M.B.H.).
Based on the calibration curve prepared from the standard wells, amounts of PAI-1 bound to tPA in the wells treated with the present application compound were calculated, and the PAI-1 inhibition rates by the present application compounds were obtained by the following equation. [PAI-1 Inhibition Rate (%)]=[1-(amount of PAI-1 bound to tPA on the well treated with the present application compound)/(amount of PAI-1 bound to tPA on the well treated with PAI-1 solution without present application compound (solution with the final concentration of 50 ng/ml PAI-1)]×100 <Composition of Buffer A> 0.1 M Tris-HCl-150 150 mM NaCl pH 7.7 <Composition of Buffer B> 50 mM sodium phosphate 0.1 M NaCl 1 mM EDTA pH 6.6 <Composition of Buffer C> 50 mM sodium phosphate 100 mM NaCl pH 7.4 <Composition of Buffer D> 0.01 M Tris-HCl 0.25 M NaCl pH 8.0 <Composition of Wash Buffer> 0.05% Tween 20 0.1% BSA in Buffer A <Composition of p-Nitrophenyl Phosphate Solution> 1 M Diethanolamine 0.5 mM MgCl2 p-Nitrophenyl phosphate pH 9.8

T1 sequence (P05121 24-402): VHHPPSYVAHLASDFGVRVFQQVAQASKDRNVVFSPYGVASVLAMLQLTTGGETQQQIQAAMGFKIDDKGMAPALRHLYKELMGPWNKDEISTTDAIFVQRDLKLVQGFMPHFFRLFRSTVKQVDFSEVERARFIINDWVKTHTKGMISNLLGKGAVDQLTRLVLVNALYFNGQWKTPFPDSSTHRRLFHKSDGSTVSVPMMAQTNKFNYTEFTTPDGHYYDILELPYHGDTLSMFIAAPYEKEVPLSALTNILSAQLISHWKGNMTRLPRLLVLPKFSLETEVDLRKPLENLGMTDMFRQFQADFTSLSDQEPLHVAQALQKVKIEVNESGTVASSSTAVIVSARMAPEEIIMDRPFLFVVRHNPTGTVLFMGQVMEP

CCCCCOc1ccc(-c2ccc(OC(F)(F)F)cc2)cc1N(Cc1ccc(C(C)(C)C)cc1)C(=O)C(=O)O [compound 74, N-[4-(tert-butyl)benzyl]-N-[4-pentyloxy-4′-(trifluoromethoxy)biphenyl-3-yl]oxamic acid]
IC50 (recombinant human PAI-1 [1]): 820 nM
inhibition at 10 µM (recombinant rat PAI-1): > 99%
IC50 (recombinant rat PAI-1): 1140 nM
inhibition at 0.1 µM (recombinant human PAI-1 [2]): 0%

CC(C)(C)c1ccc(COc2ccc(-c3ccc(OC(F)(F)F)cc3)cc2N(Cc2ccccc2)C(=O)C(=O)O)cc1 [compound 59, N-benzyl-N-{4-[4-(tert-butyl)benzyloxy]-4′-(trifluoromethoxy)biphenyl-3-yl}oxamic Acid]
inhibition at 3 µM (recombinant human PAI-1 [1]): > 99%
IC50 (recombinant human PAI-1 [1]): 660 nM
inhibition at 3 µM (recombinant rat PAI-1): > 99%
inhibition at 10 µM (recombinant rat PAI-1): > 99%
IC50 (recombinant rat PAI-1): 1110 nM

CC(C)(C)c1ccc(CN(C(=O)C(=O)O)c2ccc(-c3ccc(OC(F)(F)F)cc3)cc2Cl)cc1 [compound 26, N-[4-(tert-butyl)benzyl]-N-[3-chloro-4′-(trifluoromethoxy)biphenyl-4-yl]oxamic Acid]
IC50 (recombinant human PAI-1 [1]): 1170 nM
IC50 (recombinant rat PAI-1): 2160 nM

CC(C)(C)c1ccc(CN(C(=O)C(=O)O)c2cccc(Oc3ccc(OC(F)(F)F)cc3)c2)cc1 [compound 52, N-[4-(tert-butyl)benzyl]-N-{3-[4-(trifluoromethoxy)phenoxy]phenyl}oxamic Acid]
IC50 (recombinant human PAI-1 [1]): 1840 nM
IC50 (recombinant rat PAI-1): 3040 nM

CC(C)(C)c1ccc(CN(C(=O)C(=O)O)c2ccc(Cl)c(-c3ccc(OC(F)(F)F)cc3)c2)cc1 [compound 66, N-[4-(tert-butyl)benzyl]-N-[2-chloro-4′-(trifluoromethoxy)biphenyl-5-yl]oxamic Acid]
inhibition at 3 µM (recombinant human PAI-1 [1]): > 99%
IC50 (recombinant human PAI-1 [1]): 1140 nM
IC50 (recombinant rat PAI-1): 1550 nM
inhibition at 0.1 µM (recombinant human PAI-1 [2]): 6%

CCCOc1ccc(N(Cc2ccc(C(C)(C)C)cc2)C(=O)C(=O)O)cc1-c1ccc(OC(F)(F)F)cc1 [compound 65, N-[4-(tert-butyl)benzyl]-N-[2-propoxy-4′-(trifluoromethoxy)biphenyl-5-yl]oxamic Acid]
inhibition at 3 µM (recombinant human PAI-1 [1]): > 99%
IC50 (recombinant human PAI-1 [1]): 1150 nM
IC50 (recombinant rat PAI-1): 1720 nM
inhibition at 0.1 µM (recombinant human PAI-1 [2]): 0%

CCN(CC)c1ccc(N(Cc2ccc(C(C)(C)C)cc2)C(=O)C(=O)O)c(-c2ccc(OC(F)(F)F)cc2)c1 [compound 88, N-[4-(tert-butyl)benzyl]-N-[5-diethylamino-4′-(trifluoromethoxy)biphenyl-2-yl]oxamic Acid]
IC50 (recombinant human PAI-1 [1]): 1130 nM
IC50 (recombinant rat PAI-1): 1890 nM
inhibition at 0.1 µM (recombinant human PAI-1 [2]): 0%
inhibition at 0.3 µM (recombinant human PAI-1 [2]): 0%

CCCCOc1ccc(-c2ccc(OC(F)(F)F)cc2)cc1N(Cc1ccc(C(C)(C)C)cc1)C(=O)C(=O)O [compound 69, N-[4-(tert-butyl)benzyl]-N-[4-butoxy-4′-(trifluoromethoxy)biphenyl-3-yl]oxamic Acid]
IC50 (recombinant human PAI-1 [1]): 880 nM
inhibition at 10 µM (recombinant rat PAI-1): > 99%
IC50 (recombinant rat PAI-1): 1280 nM
inhibition at 0.1 µM (recombinant human PAI-1 [2]): 0%

COc1cc(OC)c(N(Cc2ccc(C(C)(C)C)cc2)C(=O)C(=O)O)cc1-c1ccc(OC(F)(F)F)cc1 [compound 70, N-[4-(tert-butyl)benzyl]-N-[2,4-dimethoxy-4′-(trifluoromethoxy)biphenyl-5-yl]oxamic Acid]
IC50 (recombinant human PAI-1 [1]): 1320 nM
inhibition at 10 µM (recombinant rat PAI-1): > 99%
IC50 (recombinant rat PAI-1): 2300 nM
inhibition at 0.1 µM (recombinant human PAI-1 [2]): 0%
inhibition at 0.3 µM (recombinant human PAI-1 [2]): 0%

CC(C)(C)c1ccc(CN(C(=O)C(=O)O)c2ccc(Cl)cc2-c2ccc(OC(F)(F)F)cc2)cc1 [compound 72, N-[4-(tert-butyl)benzyl]-N-[5-chloro-4′-(trifluoromethoxy)biphenyl-2-yl]oxamic Acid]
inhibition at 3 µM (recombinant human PAI-1 [1]): > 99%
IC50 (recombinant human PAI-1 [1]): 1060 nM
IC50 (recombinant rat PAI-1): 2140 nM

Cc1ccc(N(Cc2ccc(C(C)(C)C)cc2)C(=O)C(=O)O)cc1-c1ccc(OC(F)(F)F)cc1 [compound 56, N-[4-(tert-butyl)benzyl]-N-[2-methyl-4′-(trifluoromethoxy)biphenyl-5-yl]oxamic Acid]
IC50 (recombinant human PAI-1 [1]): 1400 nM
inhibition at 10 µM (recombinant rat PAI-1): > 99%
IC50 (recombinant rat PAI-1): 1870 nM
inhibition at 0.1 µM (recombinant human PAI-1 [2]): 4%

CCC(CC)Oc1ccc(-c2ccc(OC(F)(F)F)cc2)cc1N(Cc1ccc(C(C)(C)C)cc1)C(=O)C(=O)O [compound 79, N-[4-(tert-butyl)benzyl]-N-[4-(1-ethylpropoxy)-4′-(trifluoromethoxy)biphenyl-3-yl]oxamic Acid]
inhibition at 3 µM (recombinant human PAI-1 [1]): > 99%
IC50 (recombinant human PAI-1 [1]): 740 nM
inhibition at 10 µM (recombinant rat PAI-1): > 99%
IC50 (recombinant rat PAI-1): 1180 nM
inhibition at 0.1 µM (recombinant human PAI-1 [2]): 8%

CCCOc1ccc(-c2ccc(OC(F)(F)F)cc2)cc1N(Cc1ccc(C(C)(C)C)cc1)C(=O)C(=O)O [compound 68, N-[4-(tert-butyl)benzyl]-N-[4-propoxy-4′-(trifluoromethoxy)biphenyl-3-yl]oxamic Acid]
IC50 (recombinant human PAI-1 [1]): 1180 nM
inhibition at 10 µM (recombinant rat PAI-1): > 99%
IC50 (recombinant rat PAI-1): 1790 nM

CCCCc1ccc(CN(C(=O)C(=O)O)c2ccc(-c3ccc(C(C)(C)C)cc3)cc2)cc1 [compound 86, N-(4-butylbenzyl)-N-[4′-(tert-butyl)biphenyl-4-yl]oxamic Acid]
inhibition at 3 µM (recombinant human PAI-1 [1]): > 99%
IC50 (recombinant human PAI-1 [1]): 730 nM
IC50 (recombinant rat PAI-1): 1390 nM
inhibition at 0.1 µM (recombinant human PAI-1 [2]): 0%
inhibition at 0.3 µM (recombinant human PAI-1 [2]): 0%

CC(C)(C)c1ccc(CN(C(=O)C(=O)O)c2ccc(Oc3ccc(OC(F)(F)F)cc3)cc2C(F)(F)F)cc1 [compound 54, N-[4-(tert-butyl)benzyl]-N-{4-[4-(trifluoromethoxy)phenoxy]-2-(trifluoromethyl)phenyl}oxamic Acid]
IC50 (recombinant human PAI-1 [1]): 1320 nM
IC50 (recombinant rat PAI-1): 2040 nM
inhibition at 0.1 µM (recombinant human PAI-1 [2]): 0%
inhibition at 0.3 µM (recombinant human PAI-1 [2]): 0%

CC(C)(C)c1ccc(CN(C(=O)C(=O)O)c2cccc(-c3ccc(OC(F)(F)F)cc3)c2)cc1 [compound 9, N-[4-(tert-butyl)benzyl]-N-[4′-(trifluoromethoxy)biphenyl-3-yl]oxamic Acid]
IC50 (recombinant human PAI-1 [1]): 1710 nM
inhibition at 10 µM (recombinant rat PAI-1): > 99%
IC50 (recombinant rat PAI-1): 2760 nM
inhibition at 0.1 µM (recombinant human PAI-1 [2]): 0%

CC(C)(C)c1ccc(CN(C(=O)C(=O)O)c2cc(C(F)(F)F)ccc2-c2ccc(OC(F)(F)F)cc2)cc1 [compound 48, N-[4-(tert-butyl)benzyl]-N-[4′-(trifluoromethoxy)-4-(trifluoromethyl)biphenyl-2-yl]oxamic Acid]
IC50 (recombinant human PAI-1 [1]): 1140 nM
inhibition at 3 µM (recombinant rat PAI-1): 61%
IC50 (recombinant rat PAI-1): 2450 nM

CCCCOc1ccc(N(Cc2ccc(C(C)(C)C)cc2)C(=O)C(=O)O)cc1-c1ccc(OC(F)(F)F)cc1 [compound 73, N-[4-(tert-butyl)benzyl]-N-[2-butoxy-4′-(trifluoromethoxy)biphenyl-5-yl]oxamic Acid]
inhibition at 3 µM (recombinant human PAI-1 [1]): > 99%
IC50 (recombinant human PAI-1 [1]): 1130 nM
IC50 (recombinant rat PAI-1): 1820 nM
